Converted amounts (≈) assume the structure as drawn. The source made the active and inactive calls. No cut-off for these calls is given here.
system: Agrostis stolonifera; assay: Phytotoxicity against Agrostis stolonifera at 0.001 mg/ml; format: functional, organism-based; conditions: not given

SMILES	Activity
C[C@@]12CC[C@@H](O)[C@]3(C)C4=CC(=O)OCC4=C[C@@H](OC1=O)C23 (stereo not given in full)	inactive
C[C@@]12CCC[C@]3(C)C4=CC(=O)OCC4=C[C@@H](OC1=O)C23 (stereo not given in full)	inactive

system: Vero; assay: Cytotoxicity against african green monkey Vero cells at 4760 ng/ml after 48 hrs by neutral red dye staining; format: cell-based; conditions: Chlorocebus sabaeus

SMILES	inhibition (INH)
C[C@]12C=CC[C@]3(C)C(=O)O[C@@H](C13)[C@H]1O[C@]13COC(=O)C=C32 (stereo not given in full)	Not Active
C[C@@H]1CC[C@H]2[C@@H](C)C(=O)O[C@@H]3O[C@@]4(C)CC[C@@H]1[C@]32OO4 [ARTEMISININ]	Not Active
CCN(CC)CCCC(C)Nc1ccnc2cc(Cl)ccc12 (stereo not given) [CHLOROQUINE]	Not Active

system: Lactuca sativa; assay: Phytotoxicity against Lactuca sativa at 0.01 mg/ml; format: functional, organism-based; conditions: not given

SMILES	Activity
C[C@]12C=C[C@H](O)[C@]3(C)C(=O)O[C@@H](C13)[C@H]1O[C@]13COC(=O)C=C32 (stereo not given in full)	Active

system: Agrostis stolonifera; assay: Phytotoxicity against Agrostis stolonifera at 0.1 mg/ml; format: functional, organism-based; conditions: not given

SMILES	Activity
C[C@]12C=CC[C@]3(C)C(=O)O[C@@H](C13)[C@H]1O[C@]13COC(=O)C=C32 (stereo not given in full)	Active
C[C@@]12C[C@@H](O)C[C@]3(C)C4=CC(=O)OCC4=C[C@@H](OC1=O)C23 (stereo not given in full)	Active
C[C@]12C=C[C@H](O)[C@]3(C)C(=O)O[C@@H](C13)[C@H]1O[C@]13COC(=O)C=C32 (stereo not given in full)	Active
C[C@@]12CC[C@@H](O)[C@]3(C)C4=CC(=O)OCC4=C[C@@H](OC1=O)C23 (stereo not given in full)	Active
C[C@@]12CCC[C@]3(C)C4=CC(=O)OCC4=C[C@@H](OC1=O)C23 (stereo not given in full)	Active

system: SK-OV-3; assay: Cytotoxicity against human SKOV3 cells after 48 hrs by neutral red dye staining; format: functional, cell-based; conditions: SK-OV-3, 48 h

SMILES	IC50 [µg/mL]
C[C@@]12C[C@@H](O)C[C@]3(C)C4=CC(=O)OCC4=C[C@@H](OC1=O)C23 (stereo not given in full)	3.2 (≈ 11 µM)
C[C@]12C=C[C@H](O)[C@]3(C)C(=O)O[C@@H](C13)[C@H]1O[C@]13COC(=O)C=C32 (stereo not given in full)	8 (≈ 26.3 µM)
C[C@@]12CC[C@@H](O)[C@]3(C)C4=CC(=O)OCC4=C[C@@H](OC1=O)C23 (stereo not given in full)	> 10
C[C@@]12CCC[C@]3(C)C4=CC(=O)OCC4=C[C@@H](OC1=O)C23 (stereo not given in full)	> 10

system: KB; assay: Cytotoxicity against human KB cells at 10 ug/ml after 48 hrs by neutral red dye staining; format: functional, cell-based; conditions: not given

SMILES	inhibition
C[C@]12C=CC[C@]3(C)C(=O)O[C@@H](C13)[C@H]1O[C@]13COC(=O)C=C32 (stereo not given in full)	inactive

system: Vero; assay: Cytotoxicity against african green monkey Vero cells after 48 hrs by neutral red dye staining; format: cell-based; conditions: Chlorocebus sabaeus

SMILES	IC50 [µg/mL]
C[C@@]12C[C@@H](O)C[C@]3(C)C4=CC(=O)OCC4=C[C@@H](OC1=O)C23 (stereo not given in full)	1 (≈ 3.44 µM)
C[C@]12C=C[C@H](O)[C@]3(C)C(=O)O[C@@H](C13)[C@H]1O[C@]13COC(=O)C=C32 (stereo not given in full)	1.5 (≈ 4.93 µM)
C[C@@]12CC[C@@H](O)[C@]3(C)C4=CC(=O)OCC4=C[C@@H](OC1=O)C23 (stereo not given in full)	4.76 (≈ 16.4 µM)
C[C@@]12CCC[C@]3(C)C4=CC(=O)OCC4=C[C@@H](OC1=O)C23 (stereo not given in full)	3.7 (≈ 13.5 µM)

system: Plasmodium falciparum; assay: microbe, parasite or virus in culture; conditions: W2, 72 h

SMILES	IC50 [µg/mL]
C[C@]12C=CC[C@]3(C)C(=O)O[C@@H](C13)[C@H]1O[C@]13COC(=O)C=C32 (stereo not given in full)	2.3 (≈ 7.98 µM)
C[C@@H]1CC[C@H]2[C@@H](C)C(=O)O[C@@H]3O[C@@]4(C)CC[C@@H]1[C@]32OO4 [ARTEMISININ]	0.0038 (≈ 0.0135 µM)
C[C@]12C=C[C@H](O)[C@]3(C)C(=O)O[C@@H](C13)[C@H]1O[C@]13COC(=O)C=C32 (stereo not given in full)	0.6 (≈ 1.97 µM)

system: SK-OV-3; assay: Cytotoxicity against human SKOV3 cells at 10 ug/ml after 48 hrs by neutral red dye staining; format: functional, cell-based; conditions: not given

SMILES	inhibition
C[C@]12C=CC[C@]3(C)C(=O)O[C@@H](C13)[C@H]1O[C@]13COC(=O)C=C32 (stereo not given in full)	inactive

system: Lactuca sativa; assay: Phytotoxicity against Lactuca sativa at 1 mg/ml; format: functional, organism-based; conditions: not given

SMILES	Activity
C[C@]12C=CC[C@]3(C)C(=O)O[C@@H](C13)[C@H]1O[C@]13COC(=O)C=C32 (stereo not given in full)	Active
C[C@@]12C[C@@H](O)C[C@]3(C)C4=CC(=O)OCC4=C[C@@H](OC1=O)C23 (stereo not given in full)	Active
C[C@]12C=C[C@H](O)[C@]3(C)C(=O)O[C@@H](C13)[C@H]1O[C@]13COC(=O)C=C32 (stereo not given in full)	Active
C[C@@]12CC[C@@H](O)[C@]3(C)C4=CC(=O)OCC4=C[C@@H](OC1=O)C23 (stereo not given in full)	Active
C[C@@]12CCC[C@]3(C)C4=CC(=O)OCC4=C[C@@H](OC1=O)C23 (stereo not given in full)	Active

system: Lemna aequinoctialis; assay: Phytotoxicity against Lemna paucicostata after 7 days; format: functional, organism-based; conditions: 168 h, read-out: I50

SMILES	IC50 [nM]
C[C@]12C=CC[C@]3(C)C(=O)O[C@@H](C13)[C@H]1O[C@]13COC(=O)C=C32 (stereo not given in full)	650
C[C@@]12C[C@@H](O)C[C@]3(C)C4=CC(=O)OCC4=C[C@@H](OC1=O)C23 (stereo not given in full)	9090
C[C@]12C=C[C@H](O)[C@]3(C)C(=O)O[C@@H](C13)[C@H]1O[C@]13COC(=O)C=C32 (stereo not given in full)	390
C[C@@]12CC[C@@H](O)[C@]3(C)C4=CC(=O)OCC4=C[C@@H](OC1=O)C23 (stereo not given in full)	547000
C[C@@]12CCC[C@]3(C)C4=CC(=O)OCC4=C[C@@H](OC1=O)C23 (stereo not given in full)	950

system: not listed separately; assay: Cytotoxicity against pig LLC-PK11 cells after 48 hrs by neutral red dye staining; format: functional, cell-based; conditions: Sus scrofa, LLC-PK11, 48 h

SMILES	IC50 [µg/mL]
C[C@]12C=CC[C@]3(C)C(=O)O[C@@H](C13)[C@H]1O[C@]13COC(=O)C=C32 (stereo not given in full)	> 10
C[C@@]12C[C@@H](O)C[C@]3(C)C4=CC(=O)OCC4=C[C@@H](OC1=O)C23 (stereo not given in full)	1.2 (≈ 4.13 µM)
C[C@]12C=C[C@H](O)[C@]3(C)C(=O)O[C@@H](C13)[C@H]1O[C@]13COC(=O)C=C32 (stereo not given in full)	2.8 (≈ 9.2 µM)
C[C@@]12CC[C@@H](O)[C@]3(C)C4=CC(=O)OCC4=C[C@@H](OC1=O)C23 (stereo not given in full)	> 10
C[C@@]12CCC[C@]3(C)C4=CC(=O)OCC4=C[C@@H](OC1=O)C23 (stereo not given in full)	5.4 (≈ 19.7 µM)

system: KB; assay: Cytotoxicity against human KB cells after 48 hrs by neutral red dye staining; format: functional, cell-based; conditions: not given

SMILES	IC50 [µg/mL]
C[C@@]12C[C@@H](O)C[C@]3(C)C4=CC(=O)OCC4=C[C@@H](OC1=O)C23 (stereo not given in full)	2.1 (≈ 7.23 µM)
C[C@]12C=C[C@H](O)[C@]3(C)C(=O)O[C@@H](C13)[C@H]1O[C@]13COC(=O)C=C32 (stereo not given in full)	4.4 (≈ 14.5 µM)
C[C@@]12CC[C@@H](O)[C@]3(C)C4=CC(=O)OCC4=C[C@@H](OC1=O)C23 (stereo not given in full)	> 10
C[C@@]12CCC[C@]3(C)C4=CC(=O)OCC4=C[C@@H](OC1=O)C23 (stereo not given in full)	4.2 (≈ 15.3 µM)

system: BT-549; assay: Cytotoxicity against human BT549 cells after 48 hrs by neutral red dye staining; format: functional, cell-based; conditions: BT-549, 48 h

SMILES	IC50 [µg/mL]
C[C@]12C=CC[C@]3(C)C(=O)O[C@@H](C13)[C@H]1O[C@]13COC(=O)C=C32 (stereo not given in full)	> 10
C[C@@]12C[C@@H](O)C[C@]3(C)C4=CC(=O)OCC4=C[C@@H](OC1=O)C23 (stereo not given in full)	4.7 (≈ 16.2 µM)
C[C@]12C=C[C@H](O)[C@]3(C)C(=O)O[C@@H](C13)[C@H]1O[C@]13COC(=O)C=C32 (stereo not given in full)	4.8 (≈ 15.8 µM)
C[C@@]12CC[C@@H](O)[C@]3(C)C4=CC(=O)OCC4=C[C@@H](OC1=O)C23 (stereo not given in full)	> 10
C[C@@]12CCC[C@]3(C)C4=CC(=O)OCC4=C[C@@H](OC1=O)C23 (stereo not given in full)	> 10

system: Lactuca sativa; assay: Phytotoxicity against Lactuca sativa at 0.1 mg/ml; format: functional, organism-based; conditions: not given

SMILES	Activity
C[C@]12C=CC[C@]3(C)C(=O)O[C@@H](C13)[C@H]1O[C@]13COC(=O)C=C32 (stereo not given in full)	Active
C[C@@]12C[C@@H](O)C[C@]3(C)C4=CC(=O)OCC4=C[C@@H](OC1=O)C23 (stereo not given in full)	Active
C[C@]12C=C[C@H](O)[C@]3(C)C(=O)O[C@@H](C13)[C@H]1O[C@]13COC(=O)C=C32 (stereo not given in full)	Active
C[C@@]12CC[C@@H](O)[C@]3(C)C4=CC(=O)OCC4=C[C@@H](OC1=O)C23 (stereo not given in full)	Active
C[C@@]12CCC[C@]3(C)C4=CC(=O)OCC4=C[C@@H](OC1=O)C23 (stereo not given in full)	Active

system: Plasmodium falciparum; assay: microbe, parasite or virus in culture; conditions: D6, 72 h

SMILES	IC50 [µg/mL]
C[C@]12C=CC[C@]3(C)C(=O)O[C@@H](C13)[C@H]1O[C@]13COC(=O)C=C32 (stereo not given in full)	2.3 (≈ 7.98 µM)
C[C@@H]1CC[C@H]2[C@@H](C)C(=O)O[C@@H]3O[C@@]4(C)CC[C@@H]1[C@]32OO4 [ARTEMISININ]	0.0047 (≈ 0.0166 µM)
C[C@]12C=C[C@H](O)[C@]3(C)C(=O)O[C@@H](C13)[C@H]1O[C@]13COC(=O)C=C32 (stereo not given in full)	0.75 (≈ 2.46 µM)
C[C@@]12CCC[C@]3(C)C4=CC(=O)OCC4=C[C@@H](OC1=O)C23 (stereo not given in full)	0.3 (≈ 1.09 µM)

system: SK-MEL; assay: Cytotoxicity against human SK-MEL cells after 48 hrs by neutral red dye staining; format: functional, cell-based; conditions: not given

SMILES	IC50 [µg/mL]
C[C@]12C=CC[C@]3(C)C(=O)O[C@@H](C13)[C@H]1O[C@]13COC(=O)C=C32 (stereo not given in full)	2.8 (≈ 9.71 µM)
C[C@@]12C[C@@H](O)C[C@]3(C)C4=CC(=O)OCC4=C[C@@H](OC1=O)C23 (stereo not given in full)	0.41 (≈ 1.41 µM)
C[C@]12C=C[C@H](O)[C@]3(C)C(=O)O[C@@H](C13)[C@H]1O[C@]13COC(=O)C=C32 (stereo not given in full)	0.58 (≈ 1.91 µM)
C[C@@]12CC[C@@H](O)[C@]3(C)C4=CC(=O)OCC4=C[C@@H](OC1=O)C23 (stereo not given in full)	3.3 (≈ 11.4 µM)
C[C@@]12CCC[C@]3(C)C4=CC(=O)OCC4=C[C@@H](OC1=O)C23 (stereo not given in full)	1.1 (≈ 4.01 µM)

system: Agrostis stolonifera; assay: Phytotoxicity against Agrostis stolonifera at 1 mg/ml; format: functional, organism-based; conditions: not given

SMILES	Activity
C[C@]12C=CC[C@]3(C)C(=O)O[C@@H](C13)[C@H]1O[C@]13COC(=O)C=C32 (stereo not given in full)	Active
C[C@@]12C[C@@H](O)C[C@]3(C)C4=CC(=O)OCC4=C[C@@H](OC1=O)C23 (stereo not given in full)	Active
C[C@]12C=C[C@H](O)[C@]3(C)C(=O)O[C@@H](C13)[C@H]1O[C@]13COC(=O)C=C32 (stereo not given in full)	Active
C[C@@]12CC[C@@H](O)[C@]3(C)C4=CC(=O)OCC4=C[C@@H](OC1=O)C23 (stereo not given in full)	Active
C[C@@]12CCC[C@]3(C)C4=CC(=O)OCC4=C[C@@H](OC1=O)C23 (stereo not given in full)	Active

system: Lactuca sativa; assay: Phytotoxicity against Lactuca sativa at 0.001 mg/ml; format: functional, organism-based; conditions: not given

SMILES	Activity
C[C@]12C=CC[C@]3(C)C(=O)O[C@@H](C13)[C@H]1O[C@]13COC(=O)C=C32 (stereo not given in full)	inactive
C[C@@]12CC[C@@H](O)[C@]3(C)C4=CC(=O)OCC4=C[C@@H](OC1=O)C23 (stereo not given in full)	inactive
C[C@@]12CCC[C@]3(C)C4=CC(=O)OCC4=C[C@@H](OC1=O)C23 (stereo not given in full)	inactive

From ChEMBL document CHEMBL1153751, “Biologically active tetranorditerpenoids from the fungus Sclerotinia homoeocarpa causal agent of dollar spot in turfgrass” (J Nat Prod, 2009)
